Biological target: T1, Jarid1A (Homo sapiens, UniProt P29375)
T1 construct: purchased BPS Bioscience 50110
T1 sequence (P29375 1-1090): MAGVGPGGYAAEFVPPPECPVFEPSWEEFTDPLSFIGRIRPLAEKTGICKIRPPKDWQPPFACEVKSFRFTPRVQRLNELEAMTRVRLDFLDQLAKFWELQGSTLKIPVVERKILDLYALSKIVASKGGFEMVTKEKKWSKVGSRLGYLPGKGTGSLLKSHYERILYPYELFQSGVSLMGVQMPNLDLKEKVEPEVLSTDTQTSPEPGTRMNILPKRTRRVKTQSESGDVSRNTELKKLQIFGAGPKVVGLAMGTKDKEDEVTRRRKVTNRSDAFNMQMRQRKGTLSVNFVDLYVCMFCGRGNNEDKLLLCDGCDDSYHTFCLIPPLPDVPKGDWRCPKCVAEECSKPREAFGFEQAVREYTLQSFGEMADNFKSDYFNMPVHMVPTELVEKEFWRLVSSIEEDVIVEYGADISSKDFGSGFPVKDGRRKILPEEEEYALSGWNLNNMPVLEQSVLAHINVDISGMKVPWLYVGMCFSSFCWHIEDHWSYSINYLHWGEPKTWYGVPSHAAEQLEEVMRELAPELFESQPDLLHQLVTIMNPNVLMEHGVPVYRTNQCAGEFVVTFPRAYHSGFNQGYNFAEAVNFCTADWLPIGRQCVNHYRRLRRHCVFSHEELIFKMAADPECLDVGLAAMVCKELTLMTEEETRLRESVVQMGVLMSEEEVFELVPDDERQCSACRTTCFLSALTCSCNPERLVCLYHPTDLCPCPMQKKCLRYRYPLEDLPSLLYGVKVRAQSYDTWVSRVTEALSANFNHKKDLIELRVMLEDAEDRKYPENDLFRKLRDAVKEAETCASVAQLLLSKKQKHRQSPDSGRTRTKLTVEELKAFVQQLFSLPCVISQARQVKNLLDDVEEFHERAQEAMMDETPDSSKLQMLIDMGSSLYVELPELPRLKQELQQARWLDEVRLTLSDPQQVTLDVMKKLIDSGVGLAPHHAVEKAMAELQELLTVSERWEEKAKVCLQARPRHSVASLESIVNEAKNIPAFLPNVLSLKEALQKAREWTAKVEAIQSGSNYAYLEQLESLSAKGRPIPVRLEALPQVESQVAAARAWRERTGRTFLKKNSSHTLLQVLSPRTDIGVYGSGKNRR
Assay: Jarid1A in vitro enzyme inhibition assay (TR-FRET)
Type: biochemical
Procedure, shortened: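 Demethylation of 300 nM biotin-H3K4me3 peptide by 1 nM baculovirus-expressed Jarid1A (aa 1–1090) with 2 μM α-ketoglutarate, Fe(II) and ascorbate, pH 7.3, 30 min at room temperature. Stopped with EDTA; H3K4me1-2 product detected by TR-FRET (Eu anti-H3K4me1-2/streptavidin-APC). IC50 fitted from 665/615 ratio over 11-point dilutions.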

Row | SMILES | IC50
1 | CC(C)Oc1nc(O)c2ccncc2n1 [Example 1, 2-propan-2-yloxy-3H-pyrido[3,4-d]pyrimidin-4-one] | 100 to 1000 nM
2 | CCOc1nc(O)c2ccncc2n1 [Example 2, 2-ethoxypyrido[3,4-d]pyrimidin-4-ol] | ≤ 100 nM
3 | Oc1nc(OCCOCC(F)(F)F)nc2cnccc12 [Example 23, 2-[2-(2,2,2-trifluoroethoxy)ethoxy]pyrido[3,4-d]pyrimidin-4-ol] | 100 to 1000 nM
4 | CC(C)(O)CCOc1nc(O)c2ccncc2n1 [Example 24, 2-(3-hydroxy-3-methylbutoxy)pyrido[3,4-d]pyrimidin-4-ol] | ≤ 100 nM
5 | CC(CO)COc1nc(O)c2ccncc2n1 (stereo not drawn) [Example 25, 2-(3-hydroxy-2-methylpropoxy)pyrido[3,4-d]pyrimidin-4-ol] | 100 to 1000 nM
6 | Oc1nc(OCC2CCCO2)nc2cnccc12 (stereo not drawn) [Example 26, 2-(oxolan-2-ylmethoxy)pyrido[3,4-d]pyrimidin-4-ol] | 100 to 1000 nM
7 | Oc1nc(OCC2CCOC2)nc2cnccc12 (stereo not drawn) [Example 27, 2-(oxolan-3-ylmethoxy)pyrido[3,4-d]pyrimidin-4-ol] | 100 to 1000 nM
8 | CC(=O)N(C)CCOc1nc(O)c2ccncc2n1 [Example 28, N-[2-(4-hydroxypyrido[3,4-d]pyrimidin-2-yl)oxyethyl]-N-methylacetamide] | 100 to 1000 nM
9 | CC(C)OCCOc1nc(O)c2ccncc2n1 [Example 29, 2-(2-propan-2-yloxyethoxy)pyrido[3,4-d]pyrimidin-4-ol] | 100 to 1000 nM
10 | Oc1nc(OCCOCc2ccccc2)nc2cnccc12 [Example 30, 2-(2-phenylmethoxyethoxy)pyrido[3,4-d]pyrimidin-4-ol] | 100 to 1000 nM
11 | O=C(NCCOc1nc(O)c2ccncc2n1)c1ccccc1 [Example 31, N-[2-(4-hydroxypyrido[3,4-d]pyrimidin-2-yl)oxyethyl]benzamide] | ≤ 100 nM
12 | N#Cc1cccc(COc2nc(O)c3ccncc3n2)c1 [Example 32, 3-[(4-hydroxypyrido[3,4-d]pyrimidin-2-yl)oxymethyl]benzonitrile] | 100 to 1000 nM
13 | Cn1ccc(COc2nc(O)c3ccncc3n2)n1 [Example 33, 2-[(1-methylpyrazol-3-yl)methoxy]pyrido[3,4-d]pyrimidin-4-ol] | 1000 to 10000 nM
14 | Oc1nc(Oc2ccccc2)nc2cnccc12 [Example 34, 2-phenoxypyrido[3,4-d]pyrimidin-4-ol] | ≤ 100 nM
15 | Oc1nc(OCc2ccccc2C(F)(F)F)nc2cnccc12 [Example 177, 2-{[2-(trifluoromethyl)phenyl]methoxy}pyrido[3,4-d]pyrimidin-4-ol] | 1000 to 10000 nM
16 | Oc1nc(OCc2ccccc2F)nc2cnccc12 [Example 178, 2-[(2-fluorophenyl)methoxy]pyrido[3,4-d]pyrimidin-4-ol] | 1000 to 10000 nM
17 | Oc1nc(OCc2cccc(F)c2)nc2cnccc12 [Example 179, 2-[(3-fluorophenyl)methoxy]pyrido[3,4-d]pyrimidin-4-ol] | 1000 to 10000 nM
18 | Oc1nc(OCc2ccc(F)cc2)nc2cnccc12 [Example 180, 2-[(4-fluorophenyl)methoxy]pyrido[3,4-d]pyrimidin-4-ol] | 1000 to 10000 nM

Row | SMILES | IC50
19 | Oc1nc(OCc2cccc(F)c2F)nc2cnccc12 [Example 181, 2-[(2,3-difluorophenyl)methoxy]pyrido[3,4-d]pyrimidin-4-ol] | 1000 to 10000 nM
20 | Oc1nc(OCc2cc(F)ccc2F)nc2cnccc12 [Example 182, 2-[(2,5-difluorophenyl)methoxy]pyrido[3,4-d]pyrimidin-4-ol] | 1000 to 10000 nM
21 | Oc1nc(OCc2c(F)cccc2F)nc2cnccc12 [Example 183, 2-[(2,6-difluorophenyl)methoxy]pyrido[3,4-d]pyrimidin-4-ol] | 1000 to 10000 nM
22 | Oc1nc(OCc2cccc3ccccc23)nc2cnccc12 [Example 184, 2-(naphthalen-1-ylmethoxy)pyrido[3,4-d]pyrimidin-4-ol] | 1000 to 10000 nM
23 | Oc1nc(OCc2ccccc2-c2ccccc2)nc2cnccc12 [Example 185, 2-[(2-phenylphenyl)methoxy]pyrido[3,4-d]pyrimidin-4-ol] | 1000 to 10000 nM
24 | Oc1nc(OCc2cccc(-c3ccccc3)c2)nc2cnccc12 [Example 186, 2-[(3-phenylphenyl)methoxy]pyrido[3,4-d]pyrimidin-4-ol] | 1000 to 10000 nM
25 | Oc1nc(OCc2ccc3ccccc3c2)nc2cnccc12 [Example 187, 2-(naphthalen-2-ylmethoxy)pyrido[3,4-d]pyrimidin-4-ol] | 1000 to 10000 nM
26 | Oc1nc(OCC2CCCc3ccccc32)nc2cnccc12 (stereo not drawn) [Example 188, 2-(1,2,3,4-tetrahydronaphthalen-1-ylmethoxy)pyrido[3,4-d]pyrimidin-4-ol] | 100 to 1000 nM
27 | Oc1nc(OC2Cc3ccccc3C2)nc2cnccc12 [Example 189, 2-(2,3-dihydro-1H-inden-2-yloxy)pyrido[3,4-d]pyrimidin-4-ol] | 100 to 1000 nM
28 | Oc1nc(OCC2CCc3ccccc32)nc2cnccc12 (stereo not drawn) [Example 190, 2-(2,3-dihydro-1H-inden-1-ylmethoxy)pyrido[3,4-d]pyrimidin-4-ol] | 100 to 1000 nM
29 | Oc1nc(OCC2CCc3ccccc3C2)nc2cnccc12 (stereo not drawn) [Example 191, 2-(1,2,3,4-tetrahydronaphthalen-2-ylmethoxy)pyrido[3,4-d]pyrimidin-4-ol] | 100 to 1000 nM
30 | Oc1nc(OC2CCc3ccccc32)nc2cnccc12 (stereo not drawn) [Example 192, 2-(2,3-dihydro-1H-inden-1-yloxy)pyrido[3,4-d]pyrimidin-4-ol] | 1000 to 10000 nM
31 | Oc1nc(OCc2coc3ccccc23)nc2cnccc12 [Example 193, 2-(1-benzofuran-3-ylmethoxy)pyrido[3,4-d]pyrimidin-4-ol] | 100 to 1000 nM
32 | Oc1nc(OCC2COc3ccccc32)nc2cnccc12 (stereo not drawn) [Example 194, 2-(2,3-dihydro-1-benzofuran-3-ylmethoxy)pyrido[3,4-d]pyrimidin-4-ol] | 1000 to 10000 nM
33 | Oc1nc(OCC2CCOc3ccccc32)nc2cnccc12 (stereo not drawn) [Example 195, 2-(3,4-dihydro-2H-1-benzopyran-4-ylmethoxy)pyrido[3,4-d]pyrimidin-4-ol] | 100 to 1000 nM
34 | Oc1nc(OC2CCCc3ccccc32)nc2cnccc12 (stereo not drawn) [Example 196, 2-(1,2,3,4-tetrahydronaphthalen-1-yloxy)pyrido[3,4-d]pyrimidin-4-ol] | 1000 to 10000 nM
35 | Oc1nc(OC2CCOc3ccccc32)nc2cnccc12 (stereo not drawn) [Example 197, 2-(3,4-dihydro-2H-1-benzopyran-4-yloxy)pyrido[3,4-d]pyrimidin-4-ol] | 100 to 1000 nM
36 | Cn1cnc(-c2nccc3c(=O)[nH]cnc23)c1 [Example 198, 8-(1-methylimidazol-4-yl)-3H-pyrido[3,4-d]pyrimidin-4-one] | 100 to 1000 nM

— patent publication US10526327B2, “Histone demethylase inhibitors” (CELGENE QUANTICEL RESEARCH, INC., priority 2013, dated 2020)
